Measurements from patent publication US20250282761A1, “SALT AND CRYSTAL FORMS OF AN EPIDERMAL GROWTH FACTOR RECEPTOR INHIBITOR” (Blueprint Medicines Corporation, priority 2022, published 2025).
Structures can show the parent of a compound that is named as a salt.

Experiment: Pharmacokinetics following oral (PO) administration to male beagle dogs
Type: in vivo
Conditions: single 30 mg/kg PO (free base equivalent)
Experimental: Male beagle dogs (3 in each treatment group) were administered orally 30 mg/kg of Compound (I) free base or mesylate salt of Compound (I) in a dose equivalent to 30 mg/kg of free base. The free base and the mesylate salt were suspended/dissolved in an appropriate volume of vehicle solution containing 0.5% hydroxypropyl methylcellulose (w/v) with 0.2% Tween 80 (v/v) in deionized water. The PO doses were administered into the stomach via syringe and gavage tube followed by a 5 mL water flush. Dose volumes were adjusted for the weight of the animal on the morning of dose administration. Blood samples were collected at 0, 0.5, 1, 2, 4, 6, 8, 10, 12, and 24 h postdose from an accessible vein with preference to the jugular vein. Blood samples were kept on ice until processing. All blood samples were centrifuged within 1 h of collection at 3200 RPM for 10 min at 5° C. Plasma samples were directly transferred into cluster tubes and stored at −20°±5° C. until shipment. […] Animals were fasted on the evening prior to dosing with food returned at 4 h postdose.

Row | in vivo exposure (plasma concentration, FIG. 7) (0-24 h) | appearance of animals at dose administration and blood collection time points | SMILES
1 | higher in vivo exposure |  | C=CC(=O)Nc1ccc(F)c(Nc2nc(Nc3cnn(C)c3)ncc2-c2ccc(C(F)(F)F)cc2)c1 [mesylate salt of Compound (I)]
2 |  | appeared normal | C=CC(=O)Nc1ccc(F)c(Nc2nc(Nc3cnn(C)c3)ncc2-c2ccc(C(F)(F)F)cc2)c1 [Compound (I) free base, N-(4-fluoro-3-((2-((1-methyl-1H-pyrazol-4-yl)amino)-5-(4-(trifluoromethyl)phenyl)pyrimidin-4-yl)amino)phenyl)acrylamide]
